# Results published in US20260042764A1, “COMPOSITIONS AND METHODS FOR INHIBITION OF KRAS” (TheRas, Inc., priority 2022, published 2026).
# Assays:
# [1] = molecular target: T1, Avi-KRAS WT (1-169) GppNHp/RAF1 RBD-3xFLAG (52-151) (Homo sapiens, UniProt P01116); experiment: Raf1-KRAS WT-GppNHP disruption HTRF assay (Biological Example 1); assay type: binding
# T1 construct: Avi-KRAS WT (1-169)
# Method in brief: (§1)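 Read-out is HTRF signal of the KRAS–RAF1 RBD complex, reported as percentage of activity relative to DMSO (100%). Protein mix and detection reagents each incubated 1 h at room temperature with 700 rpm shaking. Buffer: 50 mM Tris pH 7.5, 100 mM NaCl, 5 mM MgCl2, 0.1% BSA, 0.01% Tween, 10% DMSO.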
# [2] = molecular target: T2, Avi-KRAS G12R (1-169) GppNHp/RAF1 RBD-3xFLAG (52-151) (Homo sapiens, UniProt P01116, G12R); experiment: Raf1-KRAS G12R-GppNHP disruption HTRF assay (Biological Example 1); assay type: binding
# T2 construct: Avi-KRAS G12R (1-169)
# T2 sequence (P01116 1-169 isoform P01116-2 G12R): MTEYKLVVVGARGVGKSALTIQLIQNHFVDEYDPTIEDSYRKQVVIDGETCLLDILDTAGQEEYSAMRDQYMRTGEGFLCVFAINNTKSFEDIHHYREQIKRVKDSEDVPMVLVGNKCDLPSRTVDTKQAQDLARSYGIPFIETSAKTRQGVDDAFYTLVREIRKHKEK
# Method in brief: as §1
# [3] = molecular target: T3, Avi-KRAS G12D (1-169) GppNHp/RAF1 RBD-3xFLAG (52-151) (Homo sapiens, UniProt P01116, G12D); experiment: Raf1-KRAS G12D-GppNHP disruption HTRF assay (Biological Example 1); assay type: binding
# T3 construct: Avi-KRAS G12D (1-169)
# T3 sequence (P01116 1-169 isoform P01116-2 G12D): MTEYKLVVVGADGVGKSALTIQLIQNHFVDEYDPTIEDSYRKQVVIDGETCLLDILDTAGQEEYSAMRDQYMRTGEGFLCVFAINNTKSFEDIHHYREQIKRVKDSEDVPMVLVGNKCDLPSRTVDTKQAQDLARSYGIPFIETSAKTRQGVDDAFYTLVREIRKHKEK
# Method in brief: as §1
# GP2d cells (KRAS G12D) = experiment: Cell-based pERK HTRF assay in GP2d cell (Biological Example 2); settings: GP2d, GP2d (KRAS G12D) cells, pERK HTRF
# Method in brief: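 HTRF read-out of pERK (excitation 320 nm, emission 615 nm) after lysates sat 4–24 h at room temperature with Eu cryptate and d2 antibodies.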
# SW620 cells (KRAS G12V) = experiment: Cell-based pERK HTRF assay in SW620 cell (Biological Example 4); settings: Homo sapiens, SW-620, SW620 (KRAS G12V) cells, pERK HTRF
# Description: A pERK assay (Perkin Elmer) was used to determine the effectiveness of compounds in disrupting KRAS G12V protein/effector signaling in cells.
# On Day 1, cells (SW620) were seeded into 96-well plates at 3×10^4 cells/well in 80 μL complete growth media (RPMI, 10% FBS).
# On Day 2, cells were treated with compounds at 0.25% DMSO. The source plate was created with compounds diluted in media at 5-fold the final assay concentration. The compounds were run in a 9-point concentration curve starting at 1 μM, with a half-log dilution between concentrations. Twenty μL was transferred onto the cell plates (final volume in wells was 100 μL). Plates were harvested after 4 h incubation by aspirating media and adding kit-supplied 1x supplemented lysis buffer to all wells (50 μL per well). Plates were then placed on a plate shaker and incubated at 850 rpm for an additional 30 min.
# Antibody mixture solution was prepared by diluting aliquoted d2 and Eu Cryptate antibodies 1:20 in kit supplied detection buffer and mixing the diluted antibodies solutions (1:1 v:v).
# Samples were homogenized by pipetting up and down and then transferred (16 μL of cell lysates) from the 96-well cell culture plate to two wells of the HTRF 384-well detection plate containing the antibody solution. Plates were centrifuged (524 g for Imin) and allowed to incubate between 4 and 24 h at room temperature. […] Plates were centrifuged again (524 g for 1 min), then analyzed on the En Vision plate reader using the following settings: Excitation 320 nm, Bandwidth 75 nm; Emission 615 nm, Bandwidth 85 nm; Gain 100%; Flashes 100; Lag 60 μs.
# [4] = molecular target: T4, Avi-KRAS G12V (1-169) GppNHp/RAF1 RBD-3xFLAG (52-151) (Homo sapiens, UniProt P01116, G12V); experiment: Raf1-KRAS G12V-GppNHP disruption HTRF assay (Biological Example 1); assay type: binding
# T4 construct: Avi-KRAS G12V (1-169)
# T4 sequence (P01116 1-169 isoform P01116-2 G12V): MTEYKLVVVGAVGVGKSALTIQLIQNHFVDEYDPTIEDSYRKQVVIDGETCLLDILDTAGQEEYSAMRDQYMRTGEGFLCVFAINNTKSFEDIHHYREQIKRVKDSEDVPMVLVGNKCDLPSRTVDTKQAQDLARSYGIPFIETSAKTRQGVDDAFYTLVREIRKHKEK
# Method in brief: as §1
# [5] = KRAS WT, GppNHp-loaded, class symbols
# [6] = KRAS G12R, GppNHp-loaded, class symbols
# [7] = KRAS G12D, GppNHp-loaded, class symbols
# [8] = KRAS G12V, GppNHp-loaded, class symbols
# T1 sequence (P01116 1-169 isoform P01116-2): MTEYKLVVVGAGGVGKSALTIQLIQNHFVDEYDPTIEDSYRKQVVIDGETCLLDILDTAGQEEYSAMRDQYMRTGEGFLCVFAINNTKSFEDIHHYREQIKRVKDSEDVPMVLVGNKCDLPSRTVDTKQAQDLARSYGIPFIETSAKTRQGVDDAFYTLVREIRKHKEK
SMILES,IC50 ([1]; KRAS WT-GppNHp/RAF1 RBD HTRF),IC50 ([2]; KRAS G12R-GppNHp/RAF1 RBD HTRF),IC50 ([3]; KRAS G12D-GppNHp/RAF1 RBD HTRF),IC50 (GP2d cells (KRAS G12D)),IC50 (SW620 cells (KRAS G12V)),IC50 ([4]; KRAS G12V-GppNHp/RAF1 RBD HTRF),"IC50 [1, 5]","IC50 [2, 6]","IC50 [3, 7]",IC50 (GP2d cells (KRAS G12D); class symbols),IC50 (SW620 cells (KRAS G12V); class symbols),"IC50 [4, 8]","IC50 ([1]; KRAS WT, GppNHp-loaded, Table 11)","IC50 ([2]; KRAS G12R, GppNHp-loaded, Table 11)","IC50 ([3]; KRAS G12D, GppNHp-loaded, Table 11)","IC50 ([4]; KRAS G12V, GppNHp-loaded, Table 11)"
CC1c2cc(C(=O)N(C)C)nn2CCN1c1nc(OCC23CCCN2CC(F)C3)nc2c(F)c(-c3ccc(F)c4sc(N)c(C#N)c34)c(C(F)(F)F)cc12 (stereo not drawn) [Compound 568],–,–,–,–,–,–,1000 to 10000 nM,100 to 1000 nM,1000 to 10000 nM,< 100 nM,< 100 nM,100 to 1000 nM,–,–,–,–
"CCN(c1nc(OC[C@@]23CCCN2C[C@H](F)C3)nc2c(F)c(-c3ccc(F)c4sc(N)c(C#N)c34)c(C(F)(F)F)cc12)[C@H]1CCN(C(=O)c2cnn(C)c2)C1 (atropisomer, axis not shown) [Compound 748]",–,–,–,–,–,–,< 100 nM,< 100 nM,< 100 nM,< 100 nM,< 100 nM,< 100 nM,–,–,–,–
CN(c1nc(OC[C@@]23CCCN2C[C@H](F)C3)nc2c(F)c(-c3ccc(F)c4sc(N)c(C#N)c34)c(C(F)(F)F)cc12)[C@@H]1C[C@@H]2COC(=O)N2C1 [Compound 450],100 to 1000 nM,100 to 1000 nM,100 to 1000 nM,< 100 nM,< 100 nM,100 to 1000 nM,–,–,–,–,–,–,–,–,–,–
"N#Cc1c(N)sc2c(F)ccc(-c3c(C(F)(F)F)cc4c(N(C5CC5)[C@H]5CCN(C(=O)[C@H]6CCO6)C5)nc(OC[C@@]56CCCN5C[C@H](F)C6)nc4c3F)c12 (atropisomer, axis not shown) [Compound 812]",–,–,–,–,–,–,100 to 1000 nM,100 to 1000 nM,< 100 nM,< 100 nM,< 100 nM,100 to 1000 nM,–,–,–,–
N#Cc1c(N)sc2c(F)ccc(-c3c(C(F)(F)F)cc4c(N5CCN6C(=O)CCC6C5)nc(OCC56CCCN5CC(F)C6)nc4c3F)c12 (stereo not drawn) [Compound 412],100 to 1000 nM,100 to 1000 nM,100 to 1000 nM,< 100 nM,< 100 nM,100 to 1000 nM,–,–,–,–,–,–,–,–,–,–
C[C@@H]1[C@H](N(C)c2nc(OC[C@@]34CCCN3C[C@H](F)C4)nc3c(F)c(-c4ccc(F)c5sc(N)c(C#N)c45)c(C(F)(F)F)cc23)CCN1C(=O)C1(F)CC1 [Compound 425],100 to 1000 nM,100 to 1000 nM,100 to 1000 nM,< 100 nM,< 100 nM,1000 to 10000 nM,–,–,–,–,–,–,–,–,–,–
CCN(c1nc(OC[C@@]23CCCN2C[C@H](F)C3)nc2c(F)c(-c3ccc(F)c4sc(N)c(C#N)c34)c(C(F)(F)F)cc12)[C@H]1CCN(C(=O)N2CC3C(C2)C3(F)F)C1 (stereo partly drawn) [Compound 657],–,–,–,–,–,–,< 100 nM,< 100 nM,< 100 nM,< 100 nM,< 100 nM,< 100 nM,–,–,–,–

# Next, values leading:
IC50 ([1]; KRAS WT-GppNHp/RAF1 RBD HTRF),IC50 ([2]; KRAS G12R-GppNHp/RAF1 RBD HTRF),IC50 ([3]; KRAS G12D-GppNHp/RAF1 RBD HTRF),IC50 (GP2d cells (KRAS G12D)),IC50 (SW620 cells (KRAS G12V)),IC50 ([4]; KRAS G12V-GppNHp/RAF1 RBD HTRF),"IC50 [1, 5]","IC50 [2, 6]","IC50 [3, 7]",IC50 (GP2d cells (KRAS G12D); class symbols),IC50 (SW620 cells (KRAS G12V); class symbols),"IC50 [4, 8]","IC50 ([1]; KRAS WT, GppNHp-loaded, Table 11)","IC50 ([2]; KRAS G12R, GppNHp-loaded, Table 11)","IC50 ([3]; KRAS G12D, GppNHp-loaded, Table 11)","IC50 ([4]; KRAS G12V, GppNHp-loaded, Table 11)",SMILES
100 to 1000 nM,100 to 1000 nM,100 to 1000 nM,< 100 nM,< 100 nM,100 to 1000 nM,–,–,–,–,–,–,–,–,–,–,COC1C2CN(c3nc(OC[C@@]45CCCN4C[C@H](F)C5)nc4c(F)c(-c5ccc(F)c6sc(N)c(C#N)c56)c(C(F)(F)F)cc34)C1CO2 (stereo partly drawn) [Compound 509]
100 to 1000 nM,100 to 1000 nM,< 100 nM,< 100 nM,< 100 nM,100 to 1000 nM,–,–,–,–,–,–,–,–,–,–,CN(C)C(=O)[C@H]1CN(c2nc(OC[C@@]34CCCN3C[C@H](F)C4)nc3c(F)c(-c4ccc(F)c5sc(N)c(C#N)c45)c(C(F)(F)F)cc23)CCO1 [Compound 465]
–,–,–,< 100 nM,< 100 nM,–,–,–,–,–,–,–,100 to 1000 nM,100 to 1000 nM,100 to 1000 nM,1000 to 10000 nM,N#Cc1c(N)sc2c(F)ccc(-c3c(C(F)(F)F)cc4c(N5CCCCC5)nc(OC[C@@]56CCCN5C[C@H](F)C6)nc4c3F)c12 [Compound 203]
